{"source": "patent US6087401A", "about": "“Cyclopentenones, process for preparing the same, and the use thereof” (Takara Shuzo Co., Ltd., priority 1996, dated 2000)", "key": {"HL-60 cells": {"tested_on": "HL-60 cells", "assay": "viable HL-60 cell number after incubation", "type": "cell-based, human", "details": "sixth day"}, "[1]": {"tested_on": "Escherichia coli HB101 (ATCC 33694)", "assay": "growth turbidity, microorganism (13)", "type": "cell-based", "details": "8 h, control 222", "description": "(§1) They were testing microorganism (13): Escherichia coli HB101 (ATCC 33694); testing microorganism (14): Salmonella typhimurium LT-2 (ATCC 27106); testing microorganism (15): Pseudomonas aeruginosa (IFO 3080); testing microorganism (16): Staphylococcus aureus 3A (NCTC 8319); testing microorganism (17): Bacillus subtilis (IFO 3034); and testing microorganism (18): Streptococcus mutans (GS5; stored at National Institute of Health).\n(§2) The testing microorganisms were subjected to a seed culture overnight in an L-broth (1% tryptone, 0.5% yeast extract and […]; pH 7.0). The seed culture (5 μl) was inoculated to a medium to which 25-200 μg/ml of cyclopentenone was added to 5 ml of L-both and also to a medium to which nothing was added and a shake incubation was conducted at 37° C. to measure the growth. At the initiation of the incubation and also at eight hours thereafter, turbidity of the culture was measured using a Fuji Digital Turbidimeter (sold from Fuji Kogyo KK; manufactured by Akiyama Denki Seisakusho) under the condition that the adjusted scale was 82.3 and the growth of the tested microorganism was measured from the value (growth turbidity) obtained by deducting the turbidity at the initiation of incubation from that after eight hours. Incidentally, in the case of the testing microorganism (18), a brain heart infusion was used instead of L-broth."}, "[2]": {"tested_on": "Pseudomonas aeruginosa (IFO 3080)", "assay": "growth turbidity, microorganism (15)", "type": "cell-based", "details": "8 h, control 239", "description": "as §1, §2"}, "[3]": {"tested_on": "Staphylococcus aureus 3A (NCTC 8319)", "assay": "growth turbidity, microorganism (16)", "type": "cell-based", "details": "8 h, control 243", "description": "as §1, §2"}, "[4]": {"tested_on": "Streptococcus mutans (GS5)", "assay": "growth turbidity, microorganism (18)", "type": "cell-based", "details": "8 h, control 140", "description": "as §1, §2"}}}
{"smiles": "O=C1C=CC(O)C1O", "note": "(centres unmarked) [the cyclopentenone, 4,5-dihydroxy-2-cyclopenten-1-one]", "values": [{"measurement": "viable cells", "setting": "HL-60 cells; 10 μg/ml", "result": "no viable cell was found"}, {"measurement": "inhibition at 0.01 µg/mL", "setting": "HL-60 cells; Homo sapiens, HL-60, 0.01 μg/ml, vs control, read-out: cell growth inhibition", "result": "~40", "unit": "%"}, {"measurement": "inhibition at 0.1 µg/mL", "setting": "HL-60 cells; Homo sapiens, HL-60, 0.1 μg/ml, vs control, read-out: cell growth inhibition", "result": "~55", "unit": "%"}, {"measurement": "inhibition at 1 µg/mL", "setting": "HL-60 cells; Homo sapiens, HL-60, 1 μg/ml, vs control, read-out: cell growth inhibition", "result": "~90", "unit": "%"}, {"measurement": "Growth Turbidity", "setting": "[1]; 25 μg/ml", "result": 0}, {"measurement": "Growth Turbidity", "setting": "[1]; 50 μg/ml", "result": 0}, {"measurement": "Growth Turbidity", "setting": "[1]; 100 μg/ml", "result": 0}, {"measurement": "Growth Turbidity", "setting": "[1]; 200 μg/ml", "result": 0}, {"measurement": "Growth Turbidity", "setting": "[2]; 25 μg/ml", "result": 2}, {"measurement": "Growth Turbidity", "setting": "[2]; 50 μg/ml", "result": 0}, {"measurement": "Growth Turbidity", "setting": "[2]; 100 μg/ml", "result": 0}, {"measurement": "Growth Turbidity", "setting": "[2]; 200 μg/ml", "result": 0}, {"measurement": "Growth Turbidity", "setting": "[3]; 25 μg/ml", "result": 203}, {"measurement": "Growth Turbidity", "setting": "[3]; 50 μg/ml", "result": 158}, {"measurement": "Growth Turbidity", "setting": "[3]; 100 μg/ml", "result": 0}, {"measurement": "Growth Turbidity", "setting": "[3]; 200 μg/ml", "result": 0}, {"measurement": "Growth Turbidity", "setting": "[4]; 25 μg/ml", "result": 133}, {"measurement": "Growth Turbidity", "setting": "[4]; 50 μg/ml", "result": 130}, {"measurement": "Growth Turbidity", "setting": "[4]; 100 μg/ml", "result": 34}, {"measurement": "Growth Turbidity", "setting": "[4]; 200 μg/ml", "result": 6}]}
